Measured values: patent US10105357B2, “Indication of antibiotic drugs for preparation of cancer inhibition pharmaceutical composition” (LAUNX BIOMEDICAL CO., LTD., priority 2014, dated 2018)
Where a name gives a salt, the structure may show the parent alone. Read-outs that look alike come from different tables or passages of the source.

Experiments:
Assay type in all cases: cell-based, human
cancer cell lines = experiment: Cell viability analysis (WST-1) on cancer cell lines; conditions: drug 10 μM, 72 hours, WST-1; Table 3
[1] = tested on: HI650 (Lung Adenocarcinoma); experiment: Cell viability analysis, lung cancer HI650; conditions: for viability at 10 µM: Homo sapiens
[2] = tested on: A549 (Lung Adenocarcinoma); experiment: Cell viability analysis, lung cancer A549; conditions: for viability at 10 µM: Homo sapiens
[3] = tested on: AGS (Gastric Adenocarcinoma); experiment: Cell viability analysis, gastric cancer AGS; conditions: for viability at 10 µM: Homo sapiens
[4] = tested on: MKN-45 (Gastric Adenocarcinoma); experiment: Cell viability analysis, gastric cancer MKN-45; conditions: for viability at 10 µM: Homo sapiens
[5] = tested on: HepG2 (Hepatocellular Carcinoma); experiment: Cell viability analysis, hepatic cancer HepG2; conditions: for viability at 10 µM: Homo sapiens
[6] = tested on: LoVo (Colorectal Adenocarcinoma); experiment: Cell viability analysis, colon cancer LoVo; conditions: for viability at 10 µM: Homo sapiens, LoVo
[7] = tested on: A375 (Amelanotic Melanoma); experiment: Cell viability analysis, skin cancer A375; conditions: for viability at 10 µM: Homo sapiens
[8] = tested on: HeLa (Cervix Adenocarcinoma); experiment: Cell viability analysis, cervical cancer HeLa; conditions: for viability at 10 µM: Homo sapiens, HeLa
[9] = tested on: PC3 (p53−) (Prostate Adenocarcinoma); experiment: Cell viability analysis, prostate cancer PC3; conditions: for viability at 10 µM: Homo sapiens
[10] = tested on: TSGH-8301 (Urinary Bladder Carcinoma); experiment: Cell viability analysis, bladder cancer TSGH-8301; conditions: for viability at 10 µM: Homo sapiens
[11] = tested on: MCF7 (Mammary Gland, Adenocarcinoma); experiment: Cell viability analysis, breast cancer MCF7; conditions: for viability at 10 µM: Homo sapiens
[12] = tested on: HL-60 (Acute Promyelocytic Leukemia); experiment: Cell viability analysis, leukemia HL-60; conditions: for viability at 10 µM: Homo sapiens
[13] = NCI-H1650, 72 h, drug 10 μM, 72 hours, WST-1, OD450 nm, read-out: cell viability (survival rate), H1650
[14] = A549, 72 h, drug 10 μM, 72 hours, WST-1, OD450 nm, read-out: cell viability (survival rate), A549
[15] = 72 h, drug 10 μM, 72 hours, WST-1, OD450 nm, read-out: cell viability (survival rate), AGS
[16] = MKN-45, 72 h, drug 10 μM, 72 hours, WST-1, OD450 nm, read-out: cell viability (survival rate), MKN-45
[17] = HepG2, 72 h, drug 10 μM, 72 hours, WST-1, OD450 nm, read-out: cell viability (survival rate), HepG2
[18] = 72 h, read-out: cell viability (survival rate), LoVo, drug 10 μM, 72 hours, WST-1, OD450 nm
[19] = A-375, 72 h, drug 10 μM, 72 hours, WST-1, OD450 nm, read-out: cell viability (survival rate), A375
[20] = 72 h, drug 10 μM, 72 hours, WST-1, OD450 nm, read-out: cell viability (survival rate), HeLa
[21] = 72 h, drug 10 μM, 72 hours, WST-1, OD450 nm, read-out: cell viability (survival rate), PC3
[22] = 72 h, drug 10 μM, 72 hours, WST-1, OD450 nm, read-out: cell viability (survival rate), TSGH
[23] = MCF7, 72 h, drug 10 μM, 72 hours, WST-1, OD450 nm, read-out: cell viability (survival rate), MCF7
[24] = HL-60, 72 h, drug 10 μM, 72 hours, WST-1, OD450 nm, read-out: cell viability (survival rate), HL-60
[25] = NCI-H1650, 72 h, read-out: cell viability (survival rate), H1650, drug 10 μM, 72 hours, WST-1, OD450 nm
[26] = A549, 72 h, read-out: cell viability (survival rate), A549, drug 10 μM, 72 hours, WST-1, OD450 nm
[27] = 72 h, read-out: cell viability (survival rate), AGS, drug 10 μM, 72 hours, WST-1, OD450 nm
[28] = MKN-45, 72 h, read-out: cell viability (survival rate), MKN-45, drug 10 μM, 72 hours, WST-1, OD450 nm
[29] = HepG2, 72 h, read-out: cell viability (survival rate), HepG2, drug 10 μM, 72 hours, WST-1, OD450 nm
[30] = A-375, 72 h, read-out: cell viability (survival rate), A375, drug 10 μM, 72 hours, WST-1, OD450 nm
[31] = 72 h, read-out: cell viability (survival rate), HeLa, drug 10 μM, 72 hours, WST-1, OD450 nm
[32] = 72 h, read-out: cell viability (survival rate), PC3, drug 10 μM, 72 hours, WST-1, OD450 nm
[33] = 72 h, read-out: cell viability (survival rate), TSGH, drug 10 μM, 72 hours, WST-1, OD450 nm
[34] = MCF7, 72 h, read-out: cell viability (survival rate), MCF7, drug 10 μM, 72 hours, WST-1, OD450 nm
[35] = HL-60, 72 h, read-out: cell viability (survival rate), HL-60, drug 10 μM, 72 hours, WST-1, OD450 nm

| Structure (SMILES) | inhibition effect on different cancer cell lines (cancer cell lines) | viability at 10 µM [1, 13] | viability at 10 µM [2, 14] | viability at 10 µM [3, 15] | viability at 10 µM [4, 16] | viability at 10 µM [5, 17] | viability at 10 µM [6, 18] | viability at 10 µM [7, 19] | viability at 10 µM [8, 20] | viability at 10 µM [9, 21] | viability at 10 µM [10, 22] | viability at 10 µM [11, 23] | viability at 10 µM [12, 24] | viability at 10 µM [1, 25] | viability at 10 µM [2, 26] | viability at 10 µM [3, 27] | viability at 10 µM [4, 28] | viability at 10 µM [5, 29] | viability at 10 µM [7, 30] | viability at 10 µM [8, 31] | other results |
| --- | --- | --- | --- | --- | --- | --- | --- | --- | --- | --- | --- | --- | --- | --- | --- | --- | --- | --- | --- | --- | --- |
| CCCc1cc(C(N)=S)ccn1 [Protionamide (Prothionamide), Protionamide] | significant inhibition effect | 85% | 66.2% | 85.9% | 77.6% | 118% | 85.6% | 84.9% | 97.5% | 45.2% | 103% | 51.2% | 97.6% | – | – | – | – | – | – | – | – |
| [O-][n+]1ccccc1[S-].[O-][n+]1ccccc1[S-].[Zn+2] [Pyrithione zinc] | significant inhibition effect | – | – | – | – | – | – | – | – | – | – | – | – | – | – | – | – | – | – | – | cell viability (survival rate), H1650 [1]: 60.6; cell viability (survival rate), A549 [2]: 29.7; cell viability (survival rate), AGS [3]: 35.4; cell viability (survival rate), MKN-45 [4]: 57.4; cell viability (survival rate), HepG2 [5]: 70.4; cell viability (survival rate), LoVo [6]: 45.5; cell viability (survival rate), A375 [7]: 27.1; cell viability (survival rate), HeLa [8]: 47.4; cell viability (survival rate), PC3 [9]: 24.3; cell viability (survival rate), TSGH [10]: 28.7; cell viability (survival rate), MCF7 [11]: 51.8; cell viability (survival rate), HL-60 [12]: 34.5 |
| CC(=O)SCC(Cc1ccccc1)C(=O)NCC(=O)OCc1ccccc1 (stereo not drawn) [Racecadotril (Acetorphan), Racecadotril] | significant inhibition effect | 82.9% | 95.8% | 84% | 97.4% | 88.8% | 74.5% | 66.2% | 65.6% | 107% | 65.6% | 108% | 122% | – | – | – | – | – | – | – | – |
| O=C(NC(Cc1cc(=O)[nH]c2ccccc12)C(=O)O)c1ccc(Cl)cc1 (stereo not drawn) [Rebamipide] | significant inhibition effect | – | – | – | – | – | 84.9% | – | – | – | – | – | – | 80.4% | 28% | 89.6% | 97.4% | 95.3% | 81.1% | 77.4% | viability at 10 µM [9, 32]: 82.2%; viability at 10 µM [10, 33]: 105%; viability at 10 µM [11, 34]: 39.1%; viability at 10 µM [12, 35]: 100% |
| CO[C@H]1/C=C/O[C@@]2(C)Oc3c(C)c(O)c4c(c3C2=O)C2=NC3(CCN(CC(C)C)CC3)NC2=C(NC(=O)/C(C)=C\C=C\[C@H](C)[C@H](O)[C@@H](C)[C@@H](O)[C@@H](C)[C@H](OC(C)=O)[C@@H]1C)C4=O [Rifabutin (Mycobutin), Rifabutin] | significant inhibition effect | – | – | – | – | – | 104% | – | – | – | – | – | – | 88.2% | 53.1% | 115% | 62.4% | 148% | 84% | 52.8% | viability at 10 µM [9, 32]: 72.6%; viability at 10 µM [10, 33]: 82.5%; viability at 10 µM [11, 34]: 48.8%; viability at 10 µM [12, 35]: 100% |
| CO[C@H]1/C=C/O[C@@]2(C)Oc3c(C)c(O)c4c(O)c(c(/C=N/N5CCN(C)CC5)c(O)c4c3C2=O)NC(=O)/C(C)=C\C=C\[C@H](C)[C@H](O)[C@@H](C)[C@@H](O)[C@@H](C)[C@H](OC(C)=O)[C@@H]1C [Rifampin (Rifadin, Rimactane), Rifampin] | significant inhibition effect | 89.1% | 45.2% | 111% | 61.1% | 98.5% | 83.9% | 61.6% | 58.8% | 69.9% | 108% | 39.7% | 105% | – | – | – | – | – | – | – | – |
| CC(N)C12CC3CC(CC(C3)C1)C2 (stereo not drawn) [Rimantadine (Flumadine), Rimantadine] | significant inhibition effect | 96.9% | 111% | 90.8% | 82.3% | 87.7% | 95.7% | 70.3% | 71.1% | 91.3% | 126% | 97.1% | 107% | – | – | – | – | – | – | – | – |
| CC(NCCc1ccc(O)cc1)C(O)c1ccc(O)cc1 (stereo not drawn) [Ritodrine hydrochloride (Yutopar), Ritodrine hydrochloride] | significant inhibition effect | – | – | – | – | – | 104% | – | – | – | – | – | – | 96.4% | 95.5% | 80.1% | 97.2% | 92.8% | 87.4% | 133% | viability at 10 µM [9, 32]: 113%; viability at 10 µM [10, 33]: 64.4%; viability at 10 µM [11, 34]: 86.5%; viability at 10 µM [12, 35]: 86% |
| O=C(Nc1ccccc1)c1ccccc1O [Salicylanilide] | significant inhibition effect | – | – | – | – | – | – | – | – | – | – | – | – | – | – | – | – | – | – | – | viability at 10 µM ([1]; NCI-H1650, drug 10 μM, 72 hours, WST-1, OD450 nm, read-out: cell viability (survival rate), H1650): 80.5%; viability at 10 µM ([2]; A549, drug 10 μM, 72 hours, WST-1, OD450 nm, read-out: cell viability (survival rate), A549): 62.1%; viability at 10 µM ([3]; drug 10 μM, 72 hours, WST-1, OD450 nm, read-out: cell viability (survival rate), AGS): 77.8%; viability at 10 µM ([4]; MKN-45, drug 10 μM, 72 hours, WST-1, OD450 nm, read-out: cell viability (survival rate), MKN-45): 83.5%; viability at 10 µM ([5]; HepG2, drug 10 μM, 72 hours, WST-1, OD450 nm, read-out: cell viability (survival rate), HepG2): 97.2%; viability at 10 µM ([6]; drug 10 μM, 72 hours, WST-1, OD450 nm, read-out: cell viability (survival rate), LoVo): 86.2%; viability at 10 µM ([7]; A-375, drug 10 μM, 72 hours, WST-1, OD450 nm, read-out: cell viability (survival rate), A375): 92.8%; viability at 10 µM ([8]; drug 10 μM, 72 hours, WST-1, OD450 nm, read-out: cell viability (survival rate), HeLa): 118%; viability at 10 µM ([9]; drug 10 μM, 72 hours, WST-1, OD450 nm, read-out: cell viability (survival rate), PC3): 89.7%; viability at 10 µM ([10]; drug 10 μM, 72 hours, WST-1, OD450 nm, read-out: cell viability (survival rate), TSGH): 108%; viability at 10 µM ([11]; MCF7, drug 10 μM, 72 hours, WST-1, OD450 nm, read-out: cell viability (survival rate), MCF7): 106%; viability at 10 µM ([12]; HL-60, drug 10 μM, 72 hours, WST-1, OD450 nm, read-out: cell viability (survival rate), HL-60): 71.1% |
